Measurements from patent US8598132B2, “Glycosylated indolocarbazoles, method for obtaining same and uses thereof” (Universidad de Oviedo, priority 2008, dated 2013).
pIC50: −log10 of the molar value.

Assays:
[1] = biological target: T1, FGFR1 (Homo sapiens, UniProt P11362); assay: LabChip (Caliper) kinase assay, FGFR1; format: biochemical; conditions: for inhibition at 0.01 µM: compound at 10 nM; for inhibition at 0.01 µM / inhibition at 0.1 µM: read-out: remaining kinase activity (in %) / percentage of inhibition; for inhibition at 0.1 µM: compound at 100 nM; for pIC50: ATP at Km, read-out: CI50 (the source's name)
T1 construct: purchased Upstate
Experimental: (§1) The analysis of kinase activity described here was performed using LabChip (Caliper Life Sciences), specifically the Caliper LC3000 and the EZ Reader II instruments.
(§2) The kinase assay used measures the conversion of a fluorescent peptide (substrate) to a phosphorylated product. The reaction mixture, in a microplate well, is introduced by a capillary in a chip where the non-phosphorylated substrate and the phosphorylated product are separated by […]. The intensity of the fluorescent signal over time is related to the reaction progress. The phosphorylated product migrates quicker than the non-phosphorylated substrate and the signals of the two forms of the peptide appear as differentiated peaks. The Caliper determines the peak height and calculates the ratio of product to the peak sum (P/(P+S)). This value is used to compare wells with compounds and wells with controls and thus determine the % of inhibition for the given product.
(§3) The followings kinases were used for the enzymatic inhibition studies, between brackets the value of the Michaelis-Menten constant, Km, of the ATP (Adenosine triphosphate) for each kinase, in μM: obtained from Carna Biosciences: MAPKAPK2 (4.6), AurA (3.6), AurB (5), PKCζ (3.8), RSK1 (23.3), PRAK (5), Erk1 (33.4), PKD2 (32.1), CK1d (16.3), CHK1 (33), ABL (61.7), FYN (36), LYNa (17), CHK2 (57.8), MET (79.5), LCK (28.5), SRC (38), GSK3β (7.3), Erk2 (62.1), PKACα (1.7), AKT2 (186.1), INSR (871.8), p38a (396.5), AKT1(48), MSK1 (21.2), PKCβ2 (84.8), ROCK2 (3.3), PIM2 (4.9), AMPK (38.6), KDR (164.8), IRAK4 (196.5), SGK1 (121.8), SYK (33.5); obtained from Invitrogen: CDK2 (57.6), BTK (123), HGK (80); obtained from Upstate: MST2 (36.6), PKGα (16), PAK2 (1.9), IGF1R (320), FGFR1 (171), MARK1 (33), CAMK2δ (22.4), c-TAK1 (66), DYRK1a (18.1), CaMK4 (3.9), FLT3 (350), c-Raf (6.2), P70S6K (95).
(§4) The compounds were dissolved in 100% DMSO and were diluted at 25 times the final concentration desired for the assay. In the case of the determination of Cl50, serial dilutions were made to reach eight concentrations and give rise to the inhibition curve. 1 μL of each concentration is transferred, in duplicate to a 384-well microplate. 12 μL of enzymatic buffer is added to each well containing purified kinase (several suppliers as indicated above), 100 mM HEPES, pH 7.5, 1 mM DTT (Calbiochem), 0.002% Brij-35 (Sigma) and also in presence of 10 mM MgCl2 as cofactor, except for INSR and IRAK4 wherein 10 mM MnCl2 is used instead of MgCl2. For the kinases CAMK26 and CAMK4, 1 mM CaCl2 and 6.7 μg/mL of calmodulin are also added. For KDR kinase, 0.05% of the CHAPSO detergent is added. For the c-Raf kinase, 10 mM MnCl2 is added. For PKCβ2 0.02 μg/mL of PS/PMA is added. For PKGα se 10 μM of cGMP (cyclic guanosine monophosphate) is added. The compound and the enzyme are left for 15 minutes preincubation and, then, the following are added to each well: 12 μL of peptide buffer/ATP containing 100 mM HEPES, pH 7.5, 1.5 μM peptide marker with fluorescein (specific for the corresponding kinase), ATP (at concentration KM), and 0.002% Brij-35 to start the reaction. Generally, the reactions are incubated for 1-1.5 h at ambient temperature to obtain an adequate conversion (15-40%) of the peptide to the phosphorylated product. The reactions were ended by the addition of 45 μL of buffer containing 0 mM EDTA. The microplates were read by the LabChip 3000 using a 12-channel LabChip. The P/(P+S) values were obtained as described above and the CI50 curves were generated using XIfit.
(§5) Table 9a has the 0150 data obtained in pairs of compound-kinase selected from the compounds of formula (VII), (VIII), (IX), (XVI), (XVII) and (XVIII) after taking inhibition measurements at 100 nM and 10 nM. Those couples that provide >70% of inhibition at 10 nM were consider for measuring its IC50. […]

[2] = biological target: T2, AurA (Homo sapiens, UniProt O14965); assay: LabChip (Caliper) kinase assay, AurA; format: biochemical; conditions: for inhibition at 0.01 µM: compound at 10 nM; for inhibition at 0.01 µM / inhibition at 0.1 µM: read-out: remaining kinase activity (in %) / percentage of inhibition; for inhibition at 0.1 µM: compound at 100 nM; for pIC50: ATP at Km, read-out: CI50 (the source's name)
T2 construct: purchased Carna Biosciences
T2 sequence (O14965 1-403): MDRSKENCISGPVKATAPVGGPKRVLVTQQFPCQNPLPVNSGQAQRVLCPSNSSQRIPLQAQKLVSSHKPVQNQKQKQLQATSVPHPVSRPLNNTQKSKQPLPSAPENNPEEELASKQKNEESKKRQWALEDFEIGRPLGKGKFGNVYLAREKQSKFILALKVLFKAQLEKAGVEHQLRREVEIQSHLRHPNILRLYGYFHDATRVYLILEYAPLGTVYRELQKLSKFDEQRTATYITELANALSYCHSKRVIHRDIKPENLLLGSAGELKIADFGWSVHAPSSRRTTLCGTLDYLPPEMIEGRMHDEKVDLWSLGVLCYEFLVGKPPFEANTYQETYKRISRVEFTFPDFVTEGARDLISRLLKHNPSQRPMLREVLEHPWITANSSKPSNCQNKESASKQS
Experimental: as §1, §2, §3, §4, §5

T1 sequence (P11362 22-822, species assumed): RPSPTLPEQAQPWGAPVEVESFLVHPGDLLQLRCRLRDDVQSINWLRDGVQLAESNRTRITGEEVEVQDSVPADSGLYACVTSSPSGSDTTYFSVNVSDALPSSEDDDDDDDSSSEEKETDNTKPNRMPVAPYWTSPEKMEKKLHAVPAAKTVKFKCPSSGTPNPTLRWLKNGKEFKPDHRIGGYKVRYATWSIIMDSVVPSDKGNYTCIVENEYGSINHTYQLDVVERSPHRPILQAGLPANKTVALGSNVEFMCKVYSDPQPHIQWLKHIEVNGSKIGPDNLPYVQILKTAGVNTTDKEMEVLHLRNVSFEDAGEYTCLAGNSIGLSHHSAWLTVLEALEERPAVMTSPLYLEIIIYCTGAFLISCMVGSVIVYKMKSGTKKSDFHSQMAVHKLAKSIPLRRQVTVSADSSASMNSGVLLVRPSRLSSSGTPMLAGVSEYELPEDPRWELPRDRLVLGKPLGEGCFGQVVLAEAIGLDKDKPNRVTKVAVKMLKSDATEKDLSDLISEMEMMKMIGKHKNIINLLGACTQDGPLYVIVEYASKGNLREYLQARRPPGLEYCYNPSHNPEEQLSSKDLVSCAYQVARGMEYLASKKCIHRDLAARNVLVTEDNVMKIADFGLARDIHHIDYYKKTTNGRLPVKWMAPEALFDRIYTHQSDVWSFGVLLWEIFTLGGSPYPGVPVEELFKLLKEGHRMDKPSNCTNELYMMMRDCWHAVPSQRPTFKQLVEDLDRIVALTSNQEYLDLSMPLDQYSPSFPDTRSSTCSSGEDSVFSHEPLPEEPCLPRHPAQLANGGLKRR

Row | SMILES | inhibition at 0.01 µM [1] [%] | inhibition at 0.1 µM [1] [%] | inhibition at 0.01 µM [2] [%] | inhibition at 0.1 µM [2] [%] | pIC50 [1] | pIC50 [2]
1 | C[C@@H]1O[C@@H](n2c3ccccc3c3c4c(c5c6ccccc6[nH]c5c32)C(=O)NC4=O)[C@H](O)[C@H](O)[C@H]1O [formula (III), N^13-1′-β-L-rhamnosylarcyriaflavin] | 3 | 4 | 0 | 5 | – | –
2 | C[C@@H]1O[C@@H](n2c3ccccc3c3c4c(c5c6ccccc6[nH]c5c32)C(=O)NC4=O)C[C@H](O)[C@H]1O [formula (IV), N^13-1′-β-L-olivosylarcyriaflavin] | 3 | 21 | 4 | 19 | – | –
3 | C[C@]12O[C@H](C[C@@H](O)[C@H]1O)n1c3ccccc3c3c4c(c5c6ccccc6n2c5c31)C(=O)NC4=O [formula (IX), N^12-5′(S)-N^13-1′-(R)-L-digitoxosylarcyriaflavin] | – | – | – | – | < 8.00 | 8.17
4 | C[C@@H]1O[C@@H](n2c3ccccc3c3c4c(c5c6ccccc6[nH]c5c32)C(=O)NC4=O)C[C@@H](O)[C@H]1O [formula (V), N^13-1′-β-L-digitoxosylarcyriaflavin] | 7 | 34 | 4 | 22 | – | –
5 | C[C@H]1O[C@@H](n2c3ccccc3c3c4c(c5c6ccccc6[nH]c5c32)C(=O)NC4=O)C[C@@H](O)[C@@H]1O [formula (VI), N^13-1′-β-D-olivosylarcyriaflavin] | 1 | 25 | 3 | 13 | – | –
6 | C[C@]12O[C@H]([C@H](O)[C@H](O)[C@H]1O)n1c3ccccc3c3c4c(c5c6ccccc6n2c5c31)C(=O)NC4=O [formula (VII), N^12-5′(S)-N^13-1′-(R)-L-rhamnosylarcyriaflavin] | – | – | – | – | 8.05 | < 8.00
7 | C[C@]12O[C@H](C[C@H](O)[C@H]1O)n1c3ccccc3c3c4c(c5c6ccccc6n2c5c31)C(=O)NC4=O [formula (VIII), N^12-5′(S)-N^13-1′-(R)-L-olivosylarcyriaflavin] | – | – | – | – | – | < 8.00
8 | C[C@@H]1O[C@@H](n2c3ccccc3c3c4c(c5c6ccccc6[nH]c5c32)CNC4=O)[C@H](O)[C@H](O)[C@H]1O [formula (XII), N^13-1′-β-L-rhamnosyl-k252c] | 1 | 5 | 2 | 3 | – | –
9 | C[C@@H]1O[C@@H](n2c3ccccc3c3c4c(c5c6ccccc6[nH]c5c32)CNC4=O)C[C@H](O)[C@H]1O [formula (XIII), N^13-1′-β-L-olivosyl-k252c] | -1 | 7 | 2 | 24 | – | –
10 | C[C@@H]1O[C@@H](n2c3ccccc3c3c4c(c5c6ccccc6[nH]c5c32)CNC4=O)C[C@@H](O)[C@H]1O [formula (XIV), N^13-1′-β-L-digitoxosyl-k252c] | 1 | 5 | 1 | 5 | – | –
11 | C[C@H]1O[C@@H](n2c3ccccc3c3c4c(c5c6ccccc6[nH]c5c32)CNC4=O)C[C@@H](O)[C@@H]1O [formula (XV), N^13-1′-β-D-olivosyl-k252c] | -2 | 7 | 3 | 20 | – | –
12 | C[C@]12O[C@H](C[C@H](O)[C@H]1O)n1c3ccccc3c3c4c(c5c6ccccc6n2c5c31)CNC4=O [formula (XVII), N^12-5′(S)-N^13-1′-(R)-L-olivosyl-k252c] | – | – | – | – | < 8.00 | 8.30
13 | C[C@]12O[C@H](C[C@@H](O)[C@H]1O)n1c3ccccc3c3c4c(c5c6ccccc6n2c5c31)CNC4=O [formula (XVIII), N^12-5′(S)-N^13-1′-(R)-L-digitoxosyl-k252c] | – | – | – | – | < 7.00 | < 8.00
